Measurements as given in patent publication US9034922B2, “Composition for maintaining function of platelets” (THE UNIVERSITY OF TOKYO, priority 2010, dated 2015).

Experiments:
[1] = target: T1, A disintegrin and metalloproteinase 10 (ADAM10) (Homo sapiens, UniProt O14672); experiment: Enzyme inhibition experiment, ADAM10; assay type: biochemical; settings: degree somewhat low in comparison with ADAM17
T1 construct: purchased Funakoshi Co., Ltd. 936-AD-020
T1 sequence (O14672 214-672 limits assumed): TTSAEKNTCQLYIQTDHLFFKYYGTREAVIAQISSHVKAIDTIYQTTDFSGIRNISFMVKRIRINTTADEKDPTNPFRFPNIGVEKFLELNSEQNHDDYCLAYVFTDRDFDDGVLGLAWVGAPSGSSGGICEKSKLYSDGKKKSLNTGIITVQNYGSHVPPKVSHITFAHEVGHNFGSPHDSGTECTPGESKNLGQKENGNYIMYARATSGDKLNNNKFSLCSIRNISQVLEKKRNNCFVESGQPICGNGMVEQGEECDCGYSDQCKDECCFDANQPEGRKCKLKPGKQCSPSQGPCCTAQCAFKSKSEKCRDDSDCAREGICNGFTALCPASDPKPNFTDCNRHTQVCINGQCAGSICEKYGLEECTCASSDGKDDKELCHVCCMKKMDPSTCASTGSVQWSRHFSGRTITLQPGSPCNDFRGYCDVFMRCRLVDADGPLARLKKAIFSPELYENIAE
Procedure: A disintegrin and metalloproteinase 10 (ADAM10) (manufactured by Funakoshi Co., Ltd., product code: 936-AD-020) and
TACE substrate (the same as one used in Test Example 3): excitation wavelength at 355 nm, emission wavelength at 460 nm
(§1) The enzyme reaction was carried out using the enzymes and substrates. Specifically, if necessary, the enzyme was activated in advance with APMA (final concentration 1 mmol/L, p-aminophenylmercuric acetate, manufactured by Sigma-Aldrich Co., A9563) according to information from the manufacturer. Then, in a 96-well plate for fluorescence measurement, 90 μL of an enzyme solution prepared with Assay Buffer A (50 mmol/L Tris-HCl buffer (pH 7.5) containing 200 mmol/L sodium chloride, 5 mmol/L calcium chloride, 10 μmol/L zinc sulfate, and 2 mg/mL bovine serum albumin) was mixed with 90 μL of the substrate adjusted to be 20 μmol/L with Assay Buffer B (50 mmol/L Tris-HCl buffer (pH 7.5) containing 200 mmol/L sodium chloride, 5 mmol/L calcium chloride, 10 μmol/L zinc sulfate, and 0.05% PLURONIC F-68), and incubated for reaction at 25° C. or 37° C. for several hours. Moreover, the fluorescence intensities before and after the reaction were measured using a fluorometer to determine the enzyme activity. An inhibition rate was obtained based on the enzyme activities in the presence and absence of the test substances, and the 50% inhibitory concentration (IC50) was calculated.

[2] = target: T2, Matrix metalloproteinase 9 (MMP-9) (Homo sapiens, UniProt P14780); experiment: Enzyme inhibition experiment, MMP-9; assay type: biochemical; settings: 444221 substrate, 37° C., 4 hours
T2 construct: purchased Calbiochem 444231
Procedure: as §1, with “activity.” for “activity. An inhibition rate was obtained based on the enzyme activities in the presence and absence of the test substances, and the 50% inhibitory concentration (IC50) was calculated.”

[3] = test system: human peripheral blood PRP (platelet-rich plasma); experiment: Function-maintaining effect on human peripheral blood PRP (flow cytometry CD41/CD42b); assay type: cell-based; settings: Test Example 12; 37° C., 24 hours or 72 hours; S-45457 50 μM, S-45282 5 μM, p38 inhibitors 40 μM
[4] = target: T3, Matrix metalloproteinase 13 (MMP-13) (Homo sapiens, UniProt P45452); experiment: Enzyme inhibition experiment, MMP-13; assay type: biochemical; settings: 444221 substrate, 37° C., 4 hours
T3 construct: purchased Chemicon CC068
Procedure: Matrix metalloproteinase 13 (MMP-13) (manufactured by Chemicon, product number: CC068)
as §1, with “activity.” for “activity. An inhibition rate was obtained based on the enzyme activities in the presence and absence of the test substances, and the 50% inhibitory concentration (IC50) was calculated.”

[5] = target: T4, Matrix metalloproteinase 8 (MMP-8) (Homo sapiens, UniProt P22894); experiment: Enzyme inhibition experiment, MMP-8; assay type: biochemical; settings: 3163 substrate, 37° C., 5 hours
T4 construct: purchased Calbiochem 444229
Procedure: as §1, with “activity.” for “activity. An inhibition rate was obtained based on the enzyme activities in the presence and absence of the test substances, and the 50% inhibitory concentration (IC50) was calculated.”

[6] = target: T5, TACE expressed on the macrophage-like cells (THP-1) (Homo sapiens, UniProt P78536); experiment: Cellular TACE inhibition experiment (LPS-induced TNF-α production in PMA-differentiated THP-1 cells); assay type: cell-based; settings: for IC50: THP-1 macrophage-like cells, LPS 1 μg/mL, 6 hours, read-out: IC50 TNFα production
T5 construct: host or cells: THP-1 cells differentiated with PMA into macrophage-like cells
Procedure: After the differentiation, the medium was discarded, and the cells were washed with THP-1 washing buffer (RPMI 1640, 20 mM HEPES-NaOH (pH 7.4)). After the washing of the cells, a THP-1 assay buffer (RPMI 1640, 20 mmol/L HEPES-NaOH (pH 7.4), 0.01 w/v % PF-68, 10 v/v % FBS) was added thereto at 100 μL/well. Then, a THP-1 assay buffer containing the test substance (I-1 or 1-4) was further added at 50 μL/well and mixed by tapping. After incubation in a CO2 incubator for 30 to 45 minutes, a THP-1 assay buffer containing LPS was added at 50 μL/well (the final concentration of LPS was 1 μg/mL). Further, the plate was tapped for mixing, followed by incubation in the CO2 incubator for 6 hours. After the incubation was finished, human TNF-α concentration in the culture supernatant was measured with a commercially available kit (Human TNF-α CytoSet (manufactured by BIOSOURCE) or Human TNF-α Ready-Set-Go! (manufactured by eBioscience, Inc.)).

T5 sequence (P78536 215-824): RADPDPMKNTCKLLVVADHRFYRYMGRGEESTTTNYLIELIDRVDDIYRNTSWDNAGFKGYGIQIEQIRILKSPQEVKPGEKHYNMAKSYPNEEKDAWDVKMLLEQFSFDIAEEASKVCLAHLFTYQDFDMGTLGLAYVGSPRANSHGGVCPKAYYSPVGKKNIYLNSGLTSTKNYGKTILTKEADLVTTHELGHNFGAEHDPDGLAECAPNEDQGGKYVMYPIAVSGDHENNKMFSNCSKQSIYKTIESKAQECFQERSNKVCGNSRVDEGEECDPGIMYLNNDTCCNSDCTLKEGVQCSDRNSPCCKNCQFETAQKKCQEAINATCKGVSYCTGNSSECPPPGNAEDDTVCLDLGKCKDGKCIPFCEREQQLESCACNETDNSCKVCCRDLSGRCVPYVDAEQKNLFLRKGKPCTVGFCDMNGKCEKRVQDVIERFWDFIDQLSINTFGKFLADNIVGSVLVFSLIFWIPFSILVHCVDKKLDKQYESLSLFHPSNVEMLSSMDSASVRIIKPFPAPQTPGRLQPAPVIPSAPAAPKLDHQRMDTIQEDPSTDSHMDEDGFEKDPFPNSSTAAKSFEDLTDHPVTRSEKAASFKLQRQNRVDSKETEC
T2 sequence (P14780 94-707): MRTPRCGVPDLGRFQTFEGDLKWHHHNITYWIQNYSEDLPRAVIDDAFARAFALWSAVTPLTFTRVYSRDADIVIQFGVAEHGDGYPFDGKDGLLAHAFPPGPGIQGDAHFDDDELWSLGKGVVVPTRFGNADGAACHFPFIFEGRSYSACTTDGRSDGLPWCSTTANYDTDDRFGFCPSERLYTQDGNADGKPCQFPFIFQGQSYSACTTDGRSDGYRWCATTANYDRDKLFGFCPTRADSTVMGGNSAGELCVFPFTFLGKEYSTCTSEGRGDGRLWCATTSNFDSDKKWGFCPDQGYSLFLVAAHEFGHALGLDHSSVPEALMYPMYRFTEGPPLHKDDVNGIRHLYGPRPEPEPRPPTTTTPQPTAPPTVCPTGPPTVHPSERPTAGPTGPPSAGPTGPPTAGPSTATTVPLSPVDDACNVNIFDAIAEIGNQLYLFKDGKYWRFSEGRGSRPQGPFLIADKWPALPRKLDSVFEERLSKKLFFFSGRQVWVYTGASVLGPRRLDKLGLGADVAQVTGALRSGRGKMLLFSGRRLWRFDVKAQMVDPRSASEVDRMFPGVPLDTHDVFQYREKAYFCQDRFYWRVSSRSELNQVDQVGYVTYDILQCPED
T4 sequence (P22894 101-467): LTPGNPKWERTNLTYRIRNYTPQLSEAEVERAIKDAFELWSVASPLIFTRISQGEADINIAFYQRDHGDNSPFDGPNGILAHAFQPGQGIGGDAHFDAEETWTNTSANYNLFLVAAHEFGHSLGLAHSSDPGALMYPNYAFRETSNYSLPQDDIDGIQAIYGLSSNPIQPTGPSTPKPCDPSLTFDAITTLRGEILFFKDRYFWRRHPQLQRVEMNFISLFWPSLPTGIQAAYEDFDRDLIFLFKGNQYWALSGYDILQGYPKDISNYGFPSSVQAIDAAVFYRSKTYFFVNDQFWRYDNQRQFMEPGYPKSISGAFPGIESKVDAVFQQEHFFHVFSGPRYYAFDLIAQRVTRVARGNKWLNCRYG

Row | SMILES | suppression of ADAM10 (in words) [1] | IC50 [2] [nM] | function-maintaining effect on human peripheral blood PRP [3] | IC50 [4] [nM] | IC50 [5] [nM] | inhibitory activity on TACE expressed on the macrophage-like cells (in words) [6] | IC50 [6] [nM]
1 | CC#CCOc1ccc(S(=O)(=O)CC(c2ccc(CN(CC)CC)cc2)N(O)C=O)cc1 (centres unmarked) [Compound I-1, N-[2-(4-But-2-ynyloxybenzenesulfonyl)-1-(4-diethylaminomethylphenyl)ethyl]-N-hydroxyformamide] | suppressed ADAM10 | 11000 | strong effect of maintaining a function of human peripheral blood PRP | 550 | 900 | inhibitory activity was confirmed | 1200
2 | CC#CCOc1ccc(S(=O)(=O)CC(c2ccc(CNS(C)(=O)=O)cc2)N(O)C=O)cc1 (centres unmarked) [Compound I-4, N-{4-[2-(4-But-2-ynyloxybenzenesulfonyl)-1-(formylhydroxyamino)ethyl]benzyl}methanesulfonamide] | suppressed ADAM10 | 11000 | capable of continuously suppressing ADAM17-mediated GPIbα (CD42b) shedding even incubated for 72 hours | 700 | 950 | inhibitory activity was confirmed | 625
